The source of these data is paper PMC10492782, “Exploiting the aggregation propensity of beta-lactamases to design inhibitors that induce enzyme misfolding” (Nature Communications, 2023).

Data set [1] relates to HeLa cells. The data set can be described thus: CellTiter Blue cell viability. As to conditions: 24 h, 37 °C, DMEM without serum. The method, then:
Fig. 7 Evaluation of in vivo use of peptides that induce the aggregation of TEM beta-lactamase. A Lysis of human erythrocytes (hemolysis) was assessed in the presence of the indicated concentrations of TEM3.2 for 2 h at 37 °C, and normalized to the value obtained with 1% of the detergent triton. […] B Cell viability using the CellTiter Blue assay of HeLa cells treated for 24 h with the indicated concentrations TEM 3.2 at 37 °C. […] DAPI (4’,6-diamidino-2-phenylindole) is blue, while CellMask is red. D Experimental workflow of the in vivo model used in this study. E–G Bacterial load of indicated organs of female C57BL/6JAX mice with a urinary tract infection with E. coli strain UZ_TEM104, treated with 30 mg/kg penicillin (oral) as well 10 mg/kg tazobactam (oral) or 10 mg/kg TEM3.2 via the indicated treatment route. IV intravenous, IP intraperitoneal, SC subcutaneously. The data shown is from a single experiment with 12 animals for each group. The result for each animal is shown as a dot. […] The statistically significant differences were determined using ANOVA, followed by Dunnett’s multiple comparison test. […]
The Cell Titer Blue assay was performed to evaluate the cell viability according to the instructions of the manufacturer (Promega, USA). […] The fluorescence was measured at 590 nm by exciting at 560 nm with a ClarioStar plate reader (BMG Labtech, Germany).
(The colour change of resazurin is a common sign of viable cells or microbes.)

The nature of data set [2]: Dynamic Light Scattering of peptide (hydrodynamic radius). In kind it is physicochemical. As for the experimental part:
Fig. 4 Aggregation kinetics of TEM and SHV proteins and peptides. A Measurements of the hydrodynamic radius by Dynamic Light Scattering of 50 μM TEM3.2 in buffer alone, or in the presence of LPS or polyphosphate (PolyP). […] C Transmission Electron Micrograph of 50 μM TEM 3.2 incubated for 24 h in the same buffer as A with polyP, negatively stained with 2% (w/v) uranyl acetate. A single representative image is shown. […] Three replicates are shown for each condition. E Aggregation kinetics using pFTAA fluorescence emission of recombinantly purified TEM-1, in the presence of vehicle, or TEM 3.2 peptin, as well as peptin-only control. F Similar as in E, but using an off-target Pept-In, based on an APR sequence of beta-galactosidase. G Similar to E, but now using a previously published off-target Pept-In, based on an APR of HcaB. The plots are the results of a single experiment, all replicates are shown. Source data are provided as a Source Data file.
A DynaPro DLS plate reader instrument (Wyatt, Santa Barbara, CA, USA) equipped with an 830 nm laser source was used to determine the hydrodynamic radius (RH) of the peptide particles. […] The autocorrelation of scattered light intensity at a 32° angle was recorded for 5 s and averaged over 20 recordings to obtain a single data point. […]

A short description of data set [3]: Tolerability, dose escalation. The format is in vivo, female C57BL/6JAX mice. As to conditions: mice; for Tox beheviour Sub: subcutaneous. As for the experimental part: We also performed a tolerability study using a dose escalation method by administering the peptide at 2, 5, 10, 15, and 20 mg/kg via different parenteral routes: intravenous (IV), intraperitoneal (IP), and subcutaneous (SC) in female C57BL/6JAX mice, aged 8–10 weeks (Suppl Table 4). […] Vehicle alone (0.9% NaCl) was also administered (IV). After 24 h the animals were sacrificed and the bacterial load in the bladder, kidney, and ureter was quantified by determining the number of colony-forming units (CFU) per mL of tissue extract (Fig. 7E–G). […]

As for Ac-RLTAFLHNRRPRLTAFLRQRR-NH2 [TEM3.2], the “cytotoxicity, Cell Titer Blue (in words)” value in data set [1] is on record as “not cytotoxic”. The “solubility by Dynamic Light Scattering (in words)” value in data set [2] (50 μM peptide in buffer alone) is given as “soluble in vitro”. Besides, in data set [2] (50 μM peptide in the presence of LPS or polyphosphate (PolyP)), the “aggregation by Dynamic Light Scattering (in words)” value was “aggregates readily when triggered by appropriate interactions”. Further, the “Tox beheviour IP” value in data set [3] (2 mg/Kg), in data set [3] (5 mg/Kg), in data set [3] (10 mg/Kg), in data set [3] (15 mg/Kg) and in data set [3] (20 mg/Kg) was “no sign of tox” each time. Moreover, the “Tox beheviour IV” value in data set [3] (2 mg/Kg), in data set [3] (5 mg/Kg), in data set [3] (10 mg/Kg), in data set [3] (15 mg/Kg) and in data set [3] (20 mg/Kg) was “no sign of tox” throughout. Also, the “Tox beheviour Sub” value in data set [3] (2 mg/Kg), in data set [3] (5 mg/Kg), in data set [3] (10 mg/Kg), in data set [3] (15 mg/Kg) and in data set [3] (20 mg/Kg) was “no sign of tox” throughout.
